# Source: patent publication US12600726B2, “Antagonists of the muscarinic acetylcholine receptor M4” (Vanderbilt University, priority 2017, dated 2026)
# pIC50: −log10 of the molar value.
# Assays:
# Rat M4 = target: T1, Rat M4 (Rattus norvegicus, UniProt P08485); assay: mAChR M4 cell-based functional calcium flux assay (rat M4/Gqi5/CHO cells); settings: for Emin (rat M4): % ACh maximum at 30 μM; for pIC50: decrease of the response to an EC80 concentration of acetylcholine; for IC50: cells printed in μM, decrease of the EC80 acetylcholine response
# T1 construct: expressed in transfected cells; host or cells: CHO-K1 (ATCC), stably expressing M4 and Gqi5
# T1 sequence (P08485 1-478): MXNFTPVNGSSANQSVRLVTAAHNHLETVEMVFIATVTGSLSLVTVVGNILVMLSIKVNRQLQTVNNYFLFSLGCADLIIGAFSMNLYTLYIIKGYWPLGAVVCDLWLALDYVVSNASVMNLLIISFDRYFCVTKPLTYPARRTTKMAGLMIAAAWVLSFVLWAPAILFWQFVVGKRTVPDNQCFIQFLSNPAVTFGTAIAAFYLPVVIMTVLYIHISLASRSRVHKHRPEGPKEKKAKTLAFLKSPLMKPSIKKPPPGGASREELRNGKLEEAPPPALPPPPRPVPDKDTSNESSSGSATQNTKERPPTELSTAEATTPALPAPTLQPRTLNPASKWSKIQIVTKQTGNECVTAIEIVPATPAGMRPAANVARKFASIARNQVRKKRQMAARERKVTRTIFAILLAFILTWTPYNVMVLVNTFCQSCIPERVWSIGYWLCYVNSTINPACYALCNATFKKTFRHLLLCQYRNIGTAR
# Summary of the method: (§1)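 CHO-K1 cells stably co-expressing M4 of the given species with chimeric Gqi5 were loaded with Fluo-4 AM and read for calcium flux. Compounds (10-point, 1:3 dilutions) were added first, followed by an acetylcholine EC20 at 143 s and an EC80 at 268 s. IC50 reflects the concentration-dependent fall in the EC80 response, fitted with a four-parameter logistic.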
# Human M4 = target: T2, Human M4 (Homo sapiens, UniProt P08173); assay: mAChR M4 cell-based functional calcium flux assay (human M4/Gqi5/CHO cells); settings: for Emin (human M4): % ACh maximum at 30 μM; for pIC50: decrease of the response to an EC80 concentration of acetylcholine
# T2 construct: expressed in transfected cells; host or cells: CHO-K1 (ATCC), stably expressing M4 and Gqi5
# T2 sequence (P08173 1-479): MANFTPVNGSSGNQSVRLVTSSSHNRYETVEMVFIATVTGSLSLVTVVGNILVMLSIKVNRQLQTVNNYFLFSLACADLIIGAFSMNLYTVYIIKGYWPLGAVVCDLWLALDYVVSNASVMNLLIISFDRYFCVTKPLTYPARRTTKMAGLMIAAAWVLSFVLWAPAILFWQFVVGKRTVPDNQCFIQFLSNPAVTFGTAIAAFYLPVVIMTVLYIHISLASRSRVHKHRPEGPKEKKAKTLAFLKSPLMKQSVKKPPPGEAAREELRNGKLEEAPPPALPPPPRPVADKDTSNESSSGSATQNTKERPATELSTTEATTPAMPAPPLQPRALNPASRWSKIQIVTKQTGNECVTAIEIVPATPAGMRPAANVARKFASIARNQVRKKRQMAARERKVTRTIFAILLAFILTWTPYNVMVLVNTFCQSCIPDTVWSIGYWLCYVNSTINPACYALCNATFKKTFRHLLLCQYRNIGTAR
# Summary of the method: as §1
Structure (SMILES),Emin (rat M4) (Rat M4) [%],pIC50 (Rat M4),Emin (human M4) (Human M4) [%],pIC50 (Human M4),IC50 (Rat M4) [µM]
"CC(C)(C)CCN1CCC2(CC1)CC2CNc1ccc(-c2ccc3c(c2)OCO3)nn1 (stereo not shown) [Compound 46, 6-(1,3-benzodioxol-5-yl)-N-[[6-(3,3-dimethylbutyl)-6-azaspiro[2.5]octan-2-yl]methyl]pyridazin-3-amine]",3.11,6.93,3.06,7.91,–
"CC(C)(C)CCN1CCC2(CC1)CC2CNc1ccc(-c2ccc3ccccc3c2)nn1 (stereo not shown) [Compound 47, N-[[6-(3,3-dimethylbutyl)-6-azaspiro[2.5]octan-2-yl]methyl]-6-(2-naphthyl)pyridazin-3-amine]",2.90,6.41,2.97,6.68,–
"CC(C)(C)CCN1CCC2(CC1)CC2CNc1ccc(-c2ccccc2OC(F)(F)F)nn1 (stereo not shown) [Compound 48, N-[[6-(3,3-dimethylbutyl)-6-azaspiro[2.5]octan-2-yl]methyl]-6-[2-(trifluoromethoxy)phenyl]pyridazin-3-amine]",2.26,6.41,2.63,7.19,–
"CC(C)(C)CCN1CCC2(CC1)CC2CNc1ccc(-c2cnccc2C(F)(F)F)nn1 (stereo not shown) [Compound 49, N-[[6-(3,3-dimethylbutyl)-6-azaspiro[2.5]octan-2-yl]methyl]-6-[4-(trifluoromethyl)-3-pyridyl]pyridazin-3-amine]",2.44,7.03,2.64,7.89,–
"Cc1nn(C)cc1-c1ccc(NCC2CC23CCN(CC2CCCCC2)CC3)nn1 (stereo not shown) [Compound 56, N-[[6-(cyclohexylmethyl)-6-azaspiro[2.5]octan-2-yl]methyl]-6-(1,3-dimethylpyrazol-4-yl)pyridazin-3-amine]",4.14,7.20,3.42,8.30,–
"Cc1nn(C)cc1-c1ccc(NCC2CC23CCN(CC24CC5CC(CC(C5)C2)C4)CC3)nn1 (stereo not shown) [Compound 57, N-[[6-(1-adamantylmethyl)-6-azaspiro[2.5]octan-2-yl]methyl]-6-(1,3-dimethylpyrazol-4-yl)pyridazin-3-amine]",3.84,6.27,3.30,7.16,–
"Cc1nn(C)cc1-c1ccc(NCC2CC23CCN(CC2CCCOC2)CC3)nn1 (stereo not shown) [Compound 60, 6-(1,3-dimethylpyrazol-4-yl)-N-[[6-(tetrahydropyran-3-ylmethyl)-6-azaspiro[2.5]octan-2-yl]methyl]pyridazin-3-amine]",12.3,5.72,3.93,6.94,–
"Cc1nn(C)cc1-c1ccc(NCC2CC23CCN(CC2CCOCC2)CC3)nn1 (stereo not shown) [Compound 61, 6-(1,3-dimethylpyrazol-4-yl)-N-[[6-(tetrahydropyran-4-ylmethyl)-6-azaspiro[2.5]octan-2-yl]methyl]pyridazin-3-amine]",5.67,6.70,3.54,7.94,–
"CC(C)(C)CCN1CCC2(CC1)C[C@H]2CNc1ccc(-c2cc(F)ccc2Cl)nn1 [Compound 64, (R)-6-(2-chloro-5-fluoro-phenyl)-N-[[6-(3,3-dimethylbutyl)-6-azaspiro[2.5]octan-2-yl]methyl]pyridazin-3-amine]",3.68,7.48,2.90,7.96,–
"Fc1ccc(Cl)c(-c2ccc(NC[C@@H]3CC34CCN(CC3CCCCC3)CC4)nn2)c1 [Compound 65, (R)-6-(2-chloro-5-fluoro-phenyl)-N-[[6-(cyclohexylmethyl)-6-azaspiro[2.5]octan-2-yl]methyl]pyridazin-3-amine]",4.33,7.09,2.62,7.90,–

# Next, values leading:
Emin (rat M4) (Rat M4) [%],pIC50 (Rat M4),Emin (human M4) (Human M4) [%],pIC50 (Human M4),IC50 (Rat M4) [µM],Structure (SMILES)
3.70,7.80,2.71,8.62,–,"Cc1nn(C)cc1-c1ccc(NCC2CC23CCN(CCC(C)(C)C)CC3)nn1 (stereo not shown) [Compound 50, N-[[6-(3,3-dimethylbutyl)-6-azaspiro[2.5]octan-2-yl]methyl]-6-(1,3-dimethylpyrazol-4-yl)pyridazin-3-amine]"
7.13,6.09,4.31,7.31,–,"CCC(C)CN1CCC2(CC1)CC2CNc1ccc(-c2cn(C)nc2C)nn1 (stereo not shown) [Compound 51, 6-(1,3-dimethylpyrazol-4-yl)-N-[[6-(2-methylbutyl)-6-azaspiro[2.5]octan-2-yl]methyl]pyridazin-3-amine]"
5.80,6.24,3.9,7.73,–,"CCCC(C)CN1CCC2(CC1)CC2CNc1ccc(-c2cn(C)nc2C)nn1 (stereo not shown) [Compound 52, 6-(1,3-dimethylpyrazol-4-yl)-N-[[6-(2-methylpentyl)-6-azaspiro[2.5]octan-2-yl]methyl]pyridazin-3-amine]"
75.5,–,75.5,–,> 10,"CCN1CCC2(CC1)CC2CNc1ccc(-c2cn(C)nc2C)nn1 (stereo not shown) [Compound 53, 6-(1,3-dimethylpyrazol-4-yl)-N-[(6-ethyl-6-azaspiro[2.5]octan-2-yl)methyl]pyridazin-3-amine]"
53.6,5.02,19.4,5.33,–,"CCCN1CCC2(CC1)CC2CNc1ccc(-c2cn(C)nc2C)nn1 (stereo not shown) [Compound 54, 6-(1,3-dimethylpyrazol-4-yl)-N-[(6-propyl-6-azaspiro[2.5]octan-2-yl)methyl]pyridazin-3-amine]"
45.7,–,16.7,5.54,> 10,"Cc1nn(C)cc1-c1ccc(NCC2CC23CCN(CC2CC2)CC3)nn1 (stereo not shown) [Compound 55, N-[[6-(cyclopropylmethyl)-6-azaspiro[2.5]octan-2-yl]methyl]-6-(1,3-dimethylpyrazol-4-yl)pyridazin-3-amine]"
11.8,5.44,4.18,6.42,–,"Cc1nn(C)cc1-c1ccc(NCC2CC23CCN(Cc2ccccc2)CC3)nn1 (stereo not shown) [Compound 58, N-[(6-benzyl-6-azaspiro[2.5]octan-2-yl)methyl]-6-(1,3-dimethylpyrazol-4-yl)pyridazin-3-amine]"
4.58,5.73,3.31,6.27,–,"Cc1nn(C)cc1-c1ccc(NCC2CC23CCN(CC(c2ccccc2)c2ccccc2)CC3)nn1 (stereo not shown) [Compound 59, 6-(1,3-dimethylpyrazol-4-yl)-N-[[6-(2,2-diphenylethyl)-6-azaspiro[2.5]octan-2-yl]methyl]pyridazin-3-amine]"
19.9,5.35,4.23,6.57,–,"Cc1cccnc1CN1CCC2(CC1)CC2CNc1ccc(-c2cn(C)nc2C)nn1 (stereo not shown) [Compound 62, 6-(1,3-dimethylpyrazol-4-yl)-N-[[6-[(3-methyl-2-pyridyl)methyl]-6-azaspiro[2.5]octan-2-yl]methyl]pyridazin-3-amine]"
19.9,–,4.53,6.27,> 10,"Cc1nn(C)cc1-c1ccc(NCC2CC23CCN(Cc2ncccc2C(F)(F)F)CC3)nn1 (stereo not shown) [Compound 63, 6-(1,3-dimethylpyrazol-4-yl)-N-[[6-[[3-(trifluoromethyl)-2-pyridyl]methyl]-6-azaspiro[2.5]octan-2-yl]methyl]pyridazin-3-amine]"
